Laboratory results taken from ChEMBL document CHEMBL5465560, “Selectivity Literature for EUbOPEN Chemogenomic Library” (2024).
One block for each compound: values may come before it.

Key:
[1] = tested on: Dual specificity mitogen-activated protein kinase kinase 1 (Homo sapiens), Q02750 [S218D,S222D]; assay: (§1) Selectivity interaction (LanthaScreen Eu Kinase Binding Assay) EUB0001632a MAP2K1; details: at 10 µM
[2] = biological target: Dual specificity mitogen-activated protein kinase kinase 1 (Homo sapiens, UniProt Q02750); assay: as §1; details: at 10 µM
[3] = biological target: T1, Ephrin type-B receptor 4 (Homo sapiens) (UniProt P54760); assay: Selectivity interaction (Kinase panel (Z-LYTE Assay)) EUB0001632a EPHB4; details: at 10 µM
T1 sequence (whole entry): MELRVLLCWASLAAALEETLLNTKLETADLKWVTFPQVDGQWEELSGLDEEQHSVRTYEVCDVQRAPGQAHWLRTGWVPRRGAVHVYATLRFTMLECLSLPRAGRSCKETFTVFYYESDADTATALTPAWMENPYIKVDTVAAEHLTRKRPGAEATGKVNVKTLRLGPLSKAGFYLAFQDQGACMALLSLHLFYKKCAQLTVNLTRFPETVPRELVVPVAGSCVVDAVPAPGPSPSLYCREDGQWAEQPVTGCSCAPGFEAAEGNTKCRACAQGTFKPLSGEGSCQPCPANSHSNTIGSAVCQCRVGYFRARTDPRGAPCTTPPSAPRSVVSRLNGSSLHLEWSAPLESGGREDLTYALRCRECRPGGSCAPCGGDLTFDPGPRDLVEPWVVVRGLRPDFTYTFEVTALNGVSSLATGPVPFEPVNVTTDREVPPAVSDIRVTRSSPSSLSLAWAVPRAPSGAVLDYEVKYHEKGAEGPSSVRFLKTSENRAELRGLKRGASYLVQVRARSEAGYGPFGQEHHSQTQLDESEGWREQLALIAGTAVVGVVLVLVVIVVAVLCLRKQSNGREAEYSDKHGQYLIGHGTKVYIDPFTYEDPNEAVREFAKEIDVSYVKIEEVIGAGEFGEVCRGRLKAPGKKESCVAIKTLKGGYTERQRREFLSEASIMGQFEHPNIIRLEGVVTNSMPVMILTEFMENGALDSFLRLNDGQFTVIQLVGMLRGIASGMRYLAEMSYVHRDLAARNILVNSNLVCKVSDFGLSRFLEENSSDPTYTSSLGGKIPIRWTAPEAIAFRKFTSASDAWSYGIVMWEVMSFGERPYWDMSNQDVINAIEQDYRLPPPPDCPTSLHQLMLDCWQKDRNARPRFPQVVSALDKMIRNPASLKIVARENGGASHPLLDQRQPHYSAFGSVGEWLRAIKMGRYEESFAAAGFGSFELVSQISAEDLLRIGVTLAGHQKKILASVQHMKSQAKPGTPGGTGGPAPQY

Vasopressin V2 receptor = Vasopressin V2 receptor (Homo sapiens, UniProt P30518); assay: Selectivity interaction (Eurofins CEREP Diversity Profile (receptors and ion channels)) EUB0000279b AVPR2; details: at 10 µM
[4] = biological target: Phosphatidylinositol 4-kinase beta (Homo sapiens, UniProt Q9UBF8); assay: Selectivity interaction (KinomeScan (DiscoverX)) EUB0000666a PI4KB; details: at 10 µM
[5] = biological target: T2, Inhibitor of nuclear factor kappa-B kinase subunit alpha (Homo sapiens) (UniProt O15111); assay: Selectivity interaction (KinomeScan (DiscoverX)) EUB0000607a CHUK; details: at 10 µM
T2 sequence (whole entry): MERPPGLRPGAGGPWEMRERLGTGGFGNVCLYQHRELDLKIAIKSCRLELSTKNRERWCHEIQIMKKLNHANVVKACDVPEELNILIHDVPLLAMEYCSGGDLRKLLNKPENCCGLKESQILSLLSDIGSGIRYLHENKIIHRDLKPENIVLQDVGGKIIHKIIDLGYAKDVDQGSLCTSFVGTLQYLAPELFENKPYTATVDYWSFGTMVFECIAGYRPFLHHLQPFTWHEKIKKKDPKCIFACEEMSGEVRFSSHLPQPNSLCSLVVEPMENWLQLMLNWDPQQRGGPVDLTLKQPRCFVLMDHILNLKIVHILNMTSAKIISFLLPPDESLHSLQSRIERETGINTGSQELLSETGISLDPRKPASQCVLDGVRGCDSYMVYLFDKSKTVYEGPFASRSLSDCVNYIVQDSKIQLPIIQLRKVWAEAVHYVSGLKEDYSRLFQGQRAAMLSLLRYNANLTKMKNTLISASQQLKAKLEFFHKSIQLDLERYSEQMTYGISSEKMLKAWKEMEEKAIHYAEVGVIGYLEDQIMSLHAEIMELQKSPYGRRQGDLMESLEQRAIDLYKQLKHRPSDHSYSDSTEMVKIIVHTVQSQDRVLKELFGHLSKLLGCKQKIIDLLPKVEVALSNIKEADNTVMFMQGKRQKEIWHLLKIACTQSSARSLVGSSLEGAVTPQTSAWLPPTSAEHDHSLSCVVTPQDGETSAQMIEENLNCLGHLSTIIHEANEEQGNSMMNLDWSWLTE

[6] = biological target: Epidermal growth factor receptor (Homo sapiens, UniProt P00533); assay: Selectivity interaction (Upstate Kinase Profiler service (Millipore)) EUB0000056c EGFR; details: at 1 µM
[7] = biological target: Serine/threonine-protein kinase 38-like (Homo sapiens) (UniProt Q9Y2H1); assay: Selectivity interaction (ActivX KiNativ screen (kinase selectivity in THP-1 cell lysates)) EUB0000639a STK38L; format: subcellular; details: lysate, at 5 µM
[8] = biological target: Calcium/calmodulin-dependent protein kinase kinase 2 (Homo sapiens) (UniProt Q96RR4); assay: Selectivity interaction (KinomeScan (DiscoverX)) EUB0000229b CAMKK2; details: at 10 µM
[9] = tested on: Mast/stem cell growth factor receptor Kit (Homo sapiens), P10721 [L576P]; assay: (§2) Selectivity interaction (KinomeScan (DiscoverX)) EUB0000092b KIT; details: at 10 µM
[10] = tested on: Mast/stem cell growth factor receptor Kit (Homo sapiens), P10721 [V559D]; assay: as §2; details: at 10 µM
[11] = biological target: T3, Dual specificity mitogen-activated protein kinase kinase 4 (Homo sapiens) (UniProt P45985); assay: Selectivity interaction (KinomeScan (DiscoverX)) EUB0001619a MAP2K4; details: at 1 µM
T3 sequence (whole entry): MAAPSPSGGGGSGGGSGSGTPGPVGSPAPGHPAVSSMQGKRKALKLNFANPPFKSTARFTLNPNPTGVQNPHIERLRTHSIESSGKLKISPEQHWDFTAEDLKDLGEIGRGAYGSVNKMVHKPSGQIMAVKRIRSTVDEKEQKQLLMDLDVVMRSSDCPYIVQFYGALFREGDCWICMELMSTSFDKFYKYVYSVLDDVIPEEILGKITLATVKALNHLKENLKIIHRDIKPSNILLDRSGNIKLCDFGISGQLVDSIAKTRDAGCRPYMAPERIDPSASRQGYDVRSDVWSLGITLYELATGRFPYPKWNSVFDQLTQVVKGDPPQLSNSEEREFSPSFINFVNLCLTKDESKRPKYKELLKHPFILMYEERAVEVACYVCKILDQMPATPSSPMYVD

[12] = biological target: Casein kinase I isoform gamma-1 (Homo sapiens) (UniProt Q9HCP0); assay: Selectivity interaction (KinomeScan (DiscoverX)) EUB0001619a CSNK1G1; details: at 1 µM
[13] = biological target: BMP-2-inducible protein kinase (Homo sapiens) (UniProt Q9NSY1); assay: Selectivity interaction (KinomeScan (DiscoverX)) EUB0001619a BMP2K; details: at 1 µM

Chain of Dual specificity mitogen-activated protein kinase kinase 1 (Q02750 whole entry): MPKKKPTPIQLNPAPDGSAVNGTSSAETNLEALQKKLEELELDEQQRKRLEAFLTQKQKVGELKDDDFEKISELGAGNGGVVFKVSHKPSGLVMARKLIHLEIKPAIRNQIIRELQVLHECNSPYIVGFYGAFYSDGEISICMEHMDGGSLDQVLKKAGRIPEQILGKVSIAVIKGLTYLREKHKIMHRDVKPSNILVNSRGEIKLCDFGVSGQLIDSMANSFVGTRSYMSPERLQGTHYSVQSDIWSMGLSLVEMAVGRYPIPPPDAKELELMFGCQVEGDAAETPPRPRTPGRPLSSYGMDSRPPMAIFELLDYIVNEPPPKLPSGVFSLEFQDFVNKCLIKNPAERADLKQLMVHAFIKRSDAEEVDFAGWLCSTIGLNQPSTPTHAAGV
Chain of Dual specificity mitogen-activated protein kinase kinase 1 (Homo sapiens), Q02750 [S218D,S222D] (Q02750 whole entry S218D/S222D): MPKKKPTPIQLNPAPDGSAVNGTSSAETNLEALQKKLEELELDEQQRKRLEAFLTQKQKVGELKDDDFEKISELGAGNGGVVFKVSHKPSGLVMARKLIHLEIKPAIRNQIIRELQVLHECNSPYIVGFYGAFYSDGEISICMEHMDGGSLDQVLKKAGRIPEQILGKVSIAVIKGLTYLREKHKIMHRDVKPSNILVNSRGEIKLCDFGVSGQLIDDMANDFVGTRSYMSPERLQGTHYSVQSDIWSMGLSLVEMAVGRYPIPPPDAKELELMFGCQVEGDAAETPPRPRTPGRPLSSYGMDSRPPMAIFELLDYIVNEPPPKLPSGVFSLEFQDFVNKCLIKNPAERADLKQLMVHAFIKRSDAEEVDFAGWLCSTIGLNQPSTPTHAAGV
Chain of Mast/stem cell growth factor receptor Kit (Homo sapiens), P10721 [L576P] (P10721 whole entry L576P): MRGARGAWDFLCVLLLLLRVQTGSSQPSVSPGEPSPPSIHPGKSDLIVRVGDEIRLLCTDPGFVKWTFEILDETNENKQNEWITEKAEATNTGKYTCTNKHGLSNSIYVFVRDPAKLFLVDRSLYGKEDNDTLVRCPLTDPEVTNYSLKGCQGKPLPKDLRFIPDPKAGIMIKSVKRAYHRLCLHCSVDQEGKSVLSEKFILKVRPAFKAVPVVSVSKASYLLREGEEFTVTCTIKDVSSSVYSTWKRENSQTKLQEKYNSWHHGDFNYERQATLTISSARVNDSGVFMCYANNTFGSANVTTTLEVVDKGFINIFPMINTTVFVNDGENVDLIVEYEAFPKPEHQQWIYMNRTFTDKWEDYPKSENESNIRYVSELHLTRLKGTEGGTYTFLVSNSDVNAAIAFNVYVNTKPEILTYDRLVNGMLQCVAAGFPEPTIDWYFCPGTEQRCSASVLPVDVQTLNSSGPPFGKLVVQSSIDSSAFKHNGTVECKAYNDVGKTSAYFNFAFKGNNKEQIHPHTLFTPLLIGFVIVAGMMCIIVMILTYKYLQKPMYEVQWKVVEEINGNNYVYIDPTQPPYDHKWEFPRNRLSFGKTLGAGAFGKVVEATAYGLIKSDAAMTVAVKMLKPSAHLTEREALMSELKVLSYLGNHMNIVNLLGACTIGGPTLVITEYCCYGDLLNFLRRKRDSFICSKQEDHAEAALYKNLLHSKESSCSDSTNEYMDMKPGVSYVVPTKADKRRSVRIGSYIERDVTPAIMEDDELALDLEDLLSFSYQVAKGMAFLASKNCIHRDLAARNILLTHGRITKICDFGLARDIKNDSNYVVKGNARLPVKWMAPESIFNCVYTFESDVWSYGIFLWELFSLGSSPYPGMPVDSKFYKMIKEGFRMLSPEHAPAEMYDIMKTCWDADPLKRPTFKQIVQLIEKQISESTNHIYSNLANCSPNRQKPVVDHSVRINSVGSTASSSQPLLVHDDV
Chain of Phosphatidylinositol 4-kinase beta (Q9UBF8 2-816 limits assumed): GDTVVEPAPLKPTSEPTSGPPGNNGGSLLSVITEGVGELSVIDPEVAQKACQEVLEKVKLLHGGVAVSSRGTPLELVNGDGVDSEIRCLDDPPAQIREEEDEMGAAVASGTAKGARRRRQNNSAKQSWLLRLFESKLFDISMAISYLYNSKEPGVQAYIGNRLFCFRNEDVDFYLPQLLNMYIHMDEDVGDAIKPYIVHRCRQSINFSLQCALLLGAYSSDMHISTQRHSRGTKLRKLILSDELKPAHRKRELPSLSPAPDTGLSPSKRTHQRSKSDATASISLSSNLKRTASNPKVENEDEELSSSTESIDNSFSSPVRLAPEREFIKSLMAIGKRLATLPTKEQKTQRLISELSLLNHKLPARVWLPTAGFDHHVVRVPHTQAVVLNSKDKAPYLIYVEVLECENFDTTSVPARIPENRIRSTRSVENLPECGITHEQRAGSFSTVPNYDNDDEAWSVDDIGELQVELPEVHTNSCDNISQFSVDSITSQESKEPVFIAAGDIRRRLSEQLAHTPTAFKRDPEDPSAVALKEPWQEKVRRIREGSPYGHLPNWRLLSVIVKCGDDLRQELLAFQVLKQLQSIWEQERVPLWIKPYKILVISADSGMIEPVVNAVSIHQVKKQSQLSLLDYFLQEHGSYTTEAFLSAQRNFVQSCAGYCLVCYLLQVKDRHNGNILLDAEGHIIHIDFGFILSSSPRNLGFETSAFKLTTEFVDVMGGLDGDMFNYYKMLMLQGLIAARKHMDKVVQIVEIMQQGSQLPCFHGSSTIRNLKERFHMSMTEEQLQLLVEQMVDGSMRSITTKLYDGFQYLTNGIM
Chain of Casein kinase I isoform gamma-1 (Homo sapiens) (Q9HCP0 whole entry, looked up, canonical isoform): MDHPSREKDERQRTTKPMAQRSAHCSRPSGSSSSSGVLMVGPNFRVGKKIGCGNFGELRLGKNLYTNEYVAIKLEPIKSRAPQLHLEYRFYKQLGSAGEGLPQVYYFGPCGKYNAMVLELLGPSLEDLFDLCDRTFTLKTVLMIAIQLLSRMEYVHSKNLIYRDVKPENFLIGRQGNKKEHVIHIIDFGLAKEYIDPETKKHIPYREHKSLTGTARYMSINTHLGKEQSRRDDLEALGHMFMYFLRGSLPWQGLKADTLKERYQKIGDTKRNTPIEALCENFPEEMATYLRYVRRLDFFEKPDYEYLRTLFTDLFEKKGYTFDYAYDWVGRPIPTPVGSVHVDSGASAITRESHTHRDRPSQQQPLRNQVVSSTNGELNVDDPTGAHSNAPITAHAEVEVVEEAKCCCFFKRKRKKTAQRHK
Chain of Serine/threonine-protein kinase 38-like (Homo sapiens) (Q9Y2H1 2-464 limits assumed): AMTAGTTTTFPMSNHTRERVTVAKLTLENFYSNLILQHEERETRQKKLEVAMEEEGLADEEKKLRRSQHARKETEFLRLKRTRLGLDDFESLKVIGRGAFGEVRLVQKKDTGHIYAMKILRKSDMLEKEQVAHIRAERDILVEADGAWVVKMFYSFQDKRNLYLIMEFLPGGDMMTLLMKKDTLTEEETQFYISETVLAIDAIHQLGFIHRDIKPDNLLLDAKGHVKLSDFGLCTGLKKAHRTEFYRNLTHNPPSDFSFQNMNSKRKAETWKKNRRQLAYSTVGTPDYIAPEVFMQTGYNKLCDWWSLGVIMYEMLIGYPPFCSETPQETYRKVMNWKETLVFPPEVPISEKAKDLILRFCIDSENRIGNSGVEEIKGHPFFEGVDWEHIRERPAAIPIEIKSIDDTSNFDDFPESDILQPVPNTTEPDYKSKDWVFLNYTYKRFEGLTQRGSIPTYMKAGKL
Chain of Vasopressin V2 receptor (P30518 whole entry): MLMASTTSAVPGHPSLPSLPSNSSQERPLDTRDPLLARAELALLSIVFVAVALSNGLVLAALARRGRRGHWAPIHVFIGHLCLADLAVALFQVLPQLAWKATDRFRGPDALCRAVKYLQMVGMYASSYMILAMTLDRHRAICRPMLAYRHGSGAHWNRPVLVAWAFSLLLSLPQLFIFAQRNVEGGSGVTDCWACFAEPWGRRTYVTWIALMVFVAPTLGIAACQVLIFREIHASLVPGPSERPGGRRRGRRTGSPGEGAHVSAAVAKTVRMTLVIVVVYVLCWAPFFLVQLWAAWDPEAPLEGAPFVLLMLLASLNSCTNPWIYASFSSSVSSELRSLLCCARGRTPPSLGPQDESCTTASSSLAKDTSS
Chain of Epidermal growth factor receptor (P00533 whole entry): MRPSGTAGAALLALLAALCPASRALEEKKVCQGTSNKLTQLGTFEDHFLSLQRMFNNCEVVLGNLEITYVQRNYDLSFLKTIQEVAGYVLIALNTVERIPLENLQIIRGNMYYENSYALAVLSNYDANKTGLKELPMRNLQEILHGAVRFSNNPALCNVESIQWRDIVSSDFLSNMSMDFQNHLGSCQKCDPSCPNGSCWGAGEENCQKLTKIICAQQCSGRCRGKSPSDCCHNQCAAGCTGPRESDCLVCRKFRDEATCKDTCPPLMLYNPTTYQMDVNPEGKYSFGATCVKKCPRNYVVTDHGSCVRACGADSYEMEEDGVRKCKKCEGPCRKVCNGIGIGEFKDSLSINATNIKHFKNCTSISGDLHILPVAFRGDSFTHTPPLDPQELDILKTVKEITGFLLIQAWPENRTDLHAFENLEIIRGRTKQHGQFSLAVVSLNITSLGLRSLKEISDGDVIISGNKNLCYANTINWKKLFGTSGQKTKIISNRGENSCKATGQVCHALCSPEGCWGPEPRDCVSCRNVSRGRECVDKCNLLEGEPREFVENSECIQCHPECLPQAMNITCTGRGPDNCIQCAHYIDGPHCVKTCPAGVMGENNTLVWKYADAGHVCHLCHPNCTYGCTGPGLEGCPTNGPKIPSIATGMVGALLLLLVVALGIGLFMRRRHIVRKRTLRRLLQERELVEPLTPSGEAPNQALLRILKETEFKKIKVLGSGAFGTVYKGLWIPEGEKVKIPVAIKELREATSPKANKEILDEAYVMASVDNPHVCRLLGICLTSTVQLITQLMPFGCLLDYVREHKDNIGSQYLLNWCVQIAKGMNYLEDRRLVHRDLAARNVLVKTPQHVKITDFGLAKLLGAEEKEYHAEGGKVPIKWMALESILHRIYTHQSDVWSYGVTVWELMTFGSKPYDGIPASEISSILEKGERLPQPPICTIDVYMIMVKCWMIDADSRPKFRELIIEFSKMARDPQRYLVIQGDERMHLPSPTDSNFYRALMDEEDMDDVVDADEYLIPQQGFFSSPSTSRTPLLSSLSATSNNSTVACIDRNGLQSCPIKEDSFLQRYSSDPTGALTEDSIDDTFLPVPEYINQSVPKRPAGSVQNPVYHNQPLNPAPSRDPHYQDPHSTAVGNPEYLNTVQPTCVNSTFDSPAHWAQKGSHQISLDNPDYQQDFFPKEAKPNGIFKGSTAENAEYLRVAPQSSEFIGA

- % of inhibition [1]: -20.2%
- % of inhibition [2]: -15.4%
- % of control [3]: -10.1%
Structure (SMILES): Cn1cc(-n2cnc3c(NCc4nc5cc(Cl)c(Cl)cc5[nH]4)nc(N4CCOCC4)nc32)cn1

- % of control (Vasopressin V2 receptor): 109%
Structure (SMILES): CC(=O)c1cc(-c2ccccc2OCC2CC2)c2ncccn12

Structure (SMILES): O=C(NOC[C@H](O)CO)c1ccc(F)c(F)c1Nc1ccc(I)cc1F
- % of control [4]: 100%

Structure (SMILES): CNC(=O)Nc1ccc(-c2nc(N3CC4CCC(C3)O4)c3cnn(C4CCC5(CC4)OCCO5)c3n2)cc1
- % of control [5]: 100%

- % of inhibition [6]: -2%
Structure (SMILES): Cc1ccc(-c2ccc3c(ccc4sc5c(c43)NC[C@@H](C)NC5=O)n2)cn1

- % of inhibition [7]: 77.4%
Structure (SMILES): CC[C@@H]1[C@H](F)C(=O)N[C@@H]1COc1nccc2cc(C(N)=O)c(OC)cc12 [ZIMLOVISERTIB]

Structure (SMILES): COc1cc(N(C)c2ccnc3ccc(C(F)(F)F)cc23)cc(OC)c1OC
- % binding [8]: 85%

Structure (SMILES): CCC(=O)N1CCN(c2ccc(-n3c(=O)ccc4cnc5ccc(-c6cnc7ccccc7c6)cc5c43)cc2C(F)(F)F)CC1
- % of control [9]: 48%
- % of control [10]: 50%

Structure (SMILES): N#Cc1cccc(-c2c[nH]c3ncnc(N4CCOCC4)c23)c1
- % of control [11]: 100%
- % of control [12]: 100%
- % of control [13]: 54%
